Reference: patent US20250003989A1, “METHODS FOR TAUOPATHY DIAGNOSIS AND TREATMENT” (The Children`s Medical Center Corporation, priority 2021, published 2025)

System: naïve Tau
Experiment: In vitro second generation seeding without heparin, ThT assay
Conditions: equimolar effective concentration of heparin as contained in the catalytic amount of 2b seed
Description: Seeds were generated following the procedure described above at 50 μM protein concentration. The sample was vigorously pipetted to evenly disperse fibrils, and was added at a 2.5 mol % (1.25 μM protein concentration) to a 50 μM sample of new protein. Aggregation was followed with ThioflavinT assays. Thioflavin T (ThT) assays for Beta-sheet content were conducted with 50 μM protein content, and […] ThT in a 384-well Corning plate. A BioTek synergy2 plate reader was used with temperature control set at 37° C.

naïve Tau, sequence (as listed by the source): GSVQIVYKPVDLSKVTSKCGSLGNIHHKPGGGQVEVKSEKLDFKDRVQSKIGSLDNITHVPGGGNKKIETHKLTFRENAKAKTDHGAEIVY

Substance: heparin
- ThT fluorescence, heparin-only control: no detectable ThT fluorescence
